In patent US10487345B2, “Methods for making and using polynucleotide sequences in the synthesis of alkaloid compounds” (priority 2014, dated 2019):

What was measured:
[1] = target: GFLOMT6 (Glaucium flavum, UniProt A0A0H4IRD2); assay: Standard OMT assay, substrate specificity of recombinant GFLOMT6; format: biochemical; details: for conversion of substrate by GFLOMT6 / acceptance as substrate by GFLOMT6 (in words): standard OMT assay; for Substrate specificity, enzyme GFLOMT6: substrate conversion in the standard OMT assay (percent)
From the text: (§1) Full-length cDNAs for the seven GFLOMT candidates (see: Example 6) were cloned into the pRSETA expression vector with an N-terminal His_tag translational fusion and expressed in E. coli. Recombinant GFLOMTs were purified from total protein extracts using a cobalt-affinity resin.

[2] = target: T1, GFLOMT2 (Glaucium flavum, UniProt A0A0H4ILZ3); assay: Standard OMT assay, substrate specificity of recombinant GFLOMT2; format: biochemical; details: for conversion of substrate by GFLOMT2: standard OMT assay; for Substrate specificity, enzyme GFLOMT2: substrate conversion in the standard OMT assay (percent)
T1 sequence (A0A0H4ILZ3 1-348): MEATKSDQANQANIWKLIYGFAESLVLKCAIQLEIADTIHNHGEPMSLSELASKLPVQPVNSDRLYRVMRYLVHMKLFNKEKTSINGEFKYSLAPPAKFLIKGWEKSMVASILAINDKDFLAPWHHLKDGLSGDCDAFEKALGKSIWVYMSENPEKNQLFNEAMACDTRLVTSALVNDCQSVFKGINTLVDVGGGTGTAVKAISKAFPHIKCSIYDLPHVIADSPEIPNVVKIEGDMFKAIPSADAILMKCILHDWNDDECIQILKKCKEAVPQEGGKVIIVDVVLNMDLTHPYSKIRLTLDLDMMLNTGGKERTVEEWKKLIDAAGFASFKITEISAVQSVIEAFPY
From the text: as §1

[3] = target: GFLOMT1 (Glaucium flavum, UniProt A0A0H4IRD0); assay: Standard OMT assay, substrate specificity of recombinant GFLOMT1; format: biochemical; details: for conversion of substrate by GFLOMT1: standard OMT assay, in the presence of SAM; for Substrate specificity, enzyme GFLOMT1: substrate conversion in the standard OMT assay in the presence of SAM (percent)
From the text: as §1

[4] = system: GFLOMT7; assay: Standard OMT assay, substrate specificity of recombinant GFLOMT7; format: biochemical, Glaucium flavum; details: for conversion of substrate by GFLOMT7: standard OMT assay; for Substrate specificity, enzyme GFLOMT7: substrate conversion in the standard OMT assay (percent)
From the text: as §1

[5] = target: T1, GFLOMT2; details: read-out: Km of GFLOMT2 for substrate; preferred substrate yielding single reaction product

Structure (SMILES) | conversion of substrate by GFLOMT6 [1] | Substrate specificity, enzyme GFLOMT6 [1] | conversion of substrate by GFLOMT2 [2] | Substrate specificity, enzyme GFLOMT2 [2] | conversion of substrate by GFLOMT1 [3] | Substrate specificity, enzyme GFLOMT1 [3] | conversion of substrate by GFLOMT7 [4] | Substrate specificity, enzyme GFLOMT7 [4] | acceptance as substrate by GFLOMT6 (in words) [1] | Km [5]
COc1ccc(C[C@@H]2NCCc3cc(OC)c(O)cc32)cc1O (racemic) [(R,S)-Norreticuline, Norreticuline] | 36% | 36 |  |  |  |  |  |  |  | 
COc1cc2c(cc1O)C1Cc3ccc(OC)c(O)c3CN1CC2 (racemic) [(R,S)-Scoulerine, Scoulerine] | 100% | 100 | 75% | 75 | 32% | 32 | 12% | 12 |  | 
Oc1ccc(CC2NCCc3cc(O)c(O)cc32)cc1O (racemic) [(R,S)-Norlaudanosoline, Norlaudanosoline] |  |  | 100% | 100 | 96% | 96 |  |  | did not accept | 15 µM
COc1cc2c(cc1O)[C@@H]1Cc3ccc(OC)c(OC)c3CN1CC2 (racemic) [(R,S)-Tetrahydrocolubamine, Tetrahydrocolumbamine] | 90% | 91 | 32% | 32 | 19% | 19 | 8% | 8 |  | 
COc1ccc(C[C@H]2c3cc(O)c(OC)cc3CCN2C)cc1O [(S)-Reticuline, Reticuline] | 97% | 97 | 22% | 22 | 6% | 6 |  |  |  | 
COc1cc2c(cc1O)C(Cc1ccc(O)c(O)c1)NCC2 (racemic) [(R,S)-6-O-Methylnorlaudanosoline, 6-O-Methylnorlaudanosoline] |  |  | 1% | 1 | 87% | 87 |  |  | did not accept | 
COc1cc2c(cc1O)C(Cc1ccc(O)c(O)c1)N(C)CC2 (racemic) [(R,S)-6-O-Methyllaudanosoline, 6-O-Methyllaudanosoline] | 23% | 23 | 14% | 14 | 68% | 68 |  |  |  | 
